Columns and labels:
[1] = target: T1, delta opioid receptor (Rattus norvegicus, UniProt P33533); experiment: Rat Brain Delta Opioid Receptor Binding Assay ([3H]DPDPE); details: rat forebrain membranes, margin of error 10-20%, read-out: r Ki δ
T1 construct: from tissue; host or cells: forebrain of male Wistar rats
Outline: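 Rat (male Wistar) forebrain membranes in 50 mM Tris-HCl pH 7.4 with 5 mM MgCl2, incubated with ~4 nM [3H]DPDPE for 2.5 h at 25 °C. Bound ligand collected by filtration and scintillation counting. Single-concentration data given as % inhibition of specific binding; concentration series fitted to Ki.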

[2] = target: T2, mu opioid receptor (Rattus norvegicus, UniProt P33535); experiment: Rat Brain Mu Opioid Receptor Binding Assay (and Version 2a, [3H]DAMGO); details: rat forebrain membranes, margin of error 10-20%, read-out: r Ki μ
T2 construct: from tissue; host or cells: forebrain of male Wistar rats
Outline: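 Displacement of the mu-selective radioligand [3H]DAMGO (0.8 nM) measured by filtration and scintillation counting after 2.5 h at 25° C. Membranes came from male Wistar rat forebrain in Tris-HCl (50 mM, pH 7.4) plus 5 mM MgCl2; Ki derived from concentration–response, % inhibition for single doses.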

[3] = target: T3, human mu opioid receptor (Homo sapiens, UniProt P35372); experiment: Human Mu Opioid Receptor Binding Assay (CHO membranes, 3H-Damgo); details: read-out: hKi μ
T3 construct: purchased Perkin Elmer RBHOMM400UA; host or cells: Chinese Hamster Ovary cells (recombinant expression)
Outline: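 Radioligand displacement of ³H-Damgo (diluted to 3.6 nM pre-mix) from recombinant human mu receptor in CHO membranes, 2 h, room temperature, 50 mM Tris pH 7.5 with 5 mM MgCl2. Bound label read by filtration and scintillation counting; 1 μM unlabelled Damgo defines nonspecific binding.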

[4] = target: T4, delta opioid receptor (NG108-15 cell membranes) (Mus musculus, UniProt P32300); experiment: Delta Opioid Receptor Functional Assay: [35S]GTPγS Binding in NG108-15 Cell Membranes, Version 2; assay type: biochemical; details: NG108-15 cell membranes, version 2; for EC50: [35S]GTPγS, read-out: DOR GTP-binding Assay_v2_ EC50; for DOR GTP-binding Assay v2 (% I): % inhibition of agonist-stimulated GTPγS binding
T4 construct: NG108-15 cell membranes were purchased from Applied Cell Sciences (Rockville, Md.); host or cells: NG108-15 cells (membranes purchased)
Experimental: NG108-15 cell membranes were purchased from Applied Cell Sciences (Rockville, Md.). 8 mg/ml of membrane protein suspended in 10 mM TRIS-HC pH 7.2, 2 mM EDTA, 10% sucrose.
Membranes were maintained at 4-8° C. A portion (1 ml) of membranes was added into 10 ml cold binding assay buffer. The assay buffer contained 50 mM Tris, pH 7.6, 5 mM MgCl2, 100 mM NaCl, 1 mM DTT and 1 mM EGTA. The membrane suspension was homogenized with a Polytron for 2 times and centrifuged at 3000 rpm for 10 min. The supernent was then centrifuged at 18,000 rpm for 20 min. The pellet was saved in a tube and 10 ml assay buffer was added into the tube. The pellet and buffer were mixed with a Polytron.
The pellet membranes (75 μg/ml) were preincubated with SPA (10 mg/ml) at 25° C. for 45 min in the assay buffer. The SPA (5 mg/ml) coupled with membranes (37.5 μg/ml) was then incubated with 0.1 nM [^35S] GTPγS in the same Tris buffer containing 100 μM GDP in total volume of 200 μl. Increasing concentrations of receptor agonists were used to stimulate [^35S] GTPγS binding. The basal binding was tested in the absent agonists and no specific binding was tested in the present 10 μM unlabeled GTPγS. The data were analyzed on a Top counter.
[formula] % Inhibition=(% stimulation by 1 μM SNC80−% stimulation by 1 μM SNC80 in presence of test compound)×100/(% Stimulation by 1 μM SNC80−100) % of Basal=(stimulate−non specific)*100/(basal−non specific). EC50 values were calculated using GraphPad Prism.

T4 sequence (P32300 whole entry): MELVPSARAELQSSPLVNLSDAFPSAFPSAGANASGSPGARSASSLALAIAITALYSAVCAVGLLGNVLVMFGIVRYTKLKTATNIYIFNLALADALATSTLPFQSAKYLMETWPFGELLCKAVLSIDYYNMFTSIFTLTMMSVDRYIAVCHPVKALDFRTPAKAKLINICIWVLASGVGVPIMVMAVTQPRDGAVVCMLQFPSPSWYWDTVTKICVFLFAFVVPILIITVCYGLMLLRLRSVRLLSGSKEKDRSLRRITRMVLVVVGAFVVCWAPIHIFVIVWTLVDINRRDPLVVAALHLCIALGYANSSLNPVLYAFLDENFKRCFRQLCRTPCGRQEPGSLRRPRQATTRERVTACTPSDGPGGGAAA
T2 sequence (P33535 whole entry): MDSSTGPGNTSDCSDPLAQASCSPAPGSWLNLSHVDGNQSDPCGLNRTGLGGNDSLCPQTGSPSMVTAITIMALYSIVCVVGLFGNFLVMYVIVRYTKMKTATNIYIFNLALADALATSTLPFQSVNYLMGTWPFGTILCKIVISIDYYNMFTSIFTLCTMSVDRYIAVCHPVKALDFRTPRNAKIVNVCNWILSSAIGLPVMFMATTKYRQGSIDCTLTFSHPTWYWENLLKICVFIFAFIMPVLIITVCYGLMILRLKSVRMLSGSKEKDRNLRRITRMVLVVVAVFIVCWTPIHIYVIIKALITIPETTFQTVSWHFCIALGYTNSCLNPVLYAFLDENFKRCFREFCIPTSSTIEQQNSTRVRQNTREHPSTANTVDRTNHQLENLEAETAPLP
T3 sequence (P35372 whole entry): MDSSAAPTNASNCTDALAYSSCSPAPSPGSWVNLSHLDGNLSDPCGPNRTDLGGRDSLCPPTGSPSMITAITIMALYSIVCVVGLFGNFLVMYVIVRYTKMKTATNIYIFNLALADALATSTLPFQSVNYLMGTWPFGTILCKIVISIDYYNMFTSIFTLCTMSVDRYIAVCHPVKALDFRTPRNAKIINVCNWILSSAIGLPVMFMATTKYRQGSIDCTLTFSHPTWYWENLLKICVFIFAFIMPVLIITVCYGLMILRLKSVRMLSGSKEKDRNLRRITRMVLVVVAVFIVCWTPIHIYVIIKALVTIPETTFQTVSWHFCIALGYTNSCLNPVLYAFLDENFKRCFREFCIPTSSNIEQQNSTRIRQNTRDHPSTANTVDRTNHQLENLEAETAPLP
T1 sequence (P33533 whole entry): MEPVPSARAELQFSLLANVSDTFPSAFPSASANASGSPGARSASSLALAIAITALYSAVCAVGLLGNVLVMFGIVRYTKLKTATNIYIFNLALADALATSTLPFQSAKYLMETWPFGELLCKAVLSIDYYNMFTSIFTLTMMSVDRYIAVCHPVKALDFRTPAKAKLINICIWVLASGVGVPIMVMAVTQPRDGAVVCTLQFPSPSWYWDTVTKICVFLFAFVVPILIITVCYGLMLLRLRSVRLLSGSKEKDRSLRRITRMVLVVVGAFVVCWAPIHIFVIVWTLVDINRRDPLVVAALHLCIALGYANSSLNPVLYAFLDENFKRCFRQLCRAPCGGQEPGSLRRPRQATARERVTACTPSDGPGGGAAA

| SMILES | Ki [1] | Ki [2] | Ki [3] | EC50 [4] | DOR GTP-binding Assay v2 (% I) [4] |
| --- | --- | --- | --- | --- | --- |
| Cc1cc(C(N)=O)cc(C)c1C[C@H](N)C(=O)N(Cc1ccccc1C(N)=O)[C@@H](C)c1nc(-c2ccccc2)c[nH]1 [Cpd 1] | 13.2 nM | 1.1 nM | 3.6 nM | 88 nM | 22.10% |
| COC(=O)c1cccc(CN(C(=O)[C@@H](N)Cc2c(C)cc(C(N)=O)cc2C)[C@@H](C)c2nc(-c3ccccc3)c[nH]2)c1 [Cpd 9] | 0.11 nM | 0.16 nM | 10.9 nM | 3.4 nM | 67.13% |
| COc1cc(CN(C(=O)[C@@H](N)Cc2c(C)cc(C(N)=O)cc2C)[C@@H](C)c2nc(-c3ccccc3)c[nH]2)ccc1C(=O)O [Cpd 14] | 0.36 nM | – | 4.7 nM | 0.6 nM | 59.70% |
| COc1ccc(CN(C(=O)[C@@H](N)Cc2c(C)cc(C(N)=O)cc2C)[C@@H](C)c2nc(-c3ccccc3C(=O)O)c[nH]2)cc1OC [Cpd 29] | 28 nM | 25 nM | 38 nM | > 10000 nM | 79.05% |
| Cc1cc(C(N)=O)cc(C)c1C[C@H](N)C(=O)N(Cc1ccccc1C(=O)O)[C@@H](C)c1nc(-c2ccccc2)c[nH]1 [Cpd 226] | 48 nM | – | 7.91 nM | > 10000 nM | 19.71% |
| COc1cc(CN(C(=O)[C@@H](N)Cc2c(C)cc(C(N)=O)cc2C)[C@@H](C)c2nc(-c3ccccc3)c[nH]2)c(C(=O)O)cc1OC [Cpd 230] | 10 nM | 5 nM | – | 48.9 nM | – |
| COc1ccc(CN(C(=O)[C@@H](N)Cc2c(C)cc(C(N)=O)cc2C)[C@@H](C)c2nc(-c3ccc(Cl)cc3)c(C)[nH]2)cc1C(=O)O [Cpd 239] | 0.1 nM | 0.44 nM | – | > 10000 nM | – |
| COc1ccc(CN(C(=O)[C@@H](N)Cc2c(C)cc(O)cc2C)[C@@H](C)c2nc(-c3ccccc3)c[nH]2)c2ccccc12 [Cpd 247] | 0.4 nM | 0.61 nM | – | 44 nM | 41.89% |
| Cc1cc(O)cc(C)c1C[C@H](N)C(=O)N(Cc1ccc(OC(F)(F)F)cc1)[C@@H](C)c1nc(-c2ccccc2)c[nH]1 [Cpd 248] | 0.44 nM | 0.11 nM | – | 15 nM | 31.72% |
| Cc1cc(O)cc(C)c1C[C@H](N)C(=O)N(Cc1ccc(C(F)(F)F)cc1)[C@@H](C)c1nc(-c2ccccc2)c[nH]1 [Cpd 249] | 0.18 nM | 0.12 nM | – | 8 nM | 20.14% |
| Cc1cc(O)cc(C)c1C[C@H](N)C(=O)N(Cc1ccc(OC(C)C)cc1)[C@@H](C)c1nc(-c2ccccc2)c[nH]1 [Cpd 250] | 0.21 nM | 0.06 nM | – | 10 nM | 34.93% |
| CCOc1cccc(CN(C(=O)[C@@H](N)Cc2c(C)cc(O)cc2C)[C@@H](C)c2nc(-c3ccccc3)c[nH]2)c1 [Cpd 251] | 0.26 nM | 0.08 nM | – | 18 nM | 53.94% |
| COC(=O)c1ccc(CN(C(=O)[C@@H](N)Cc2c(C)cc(O)cc2C)[C@@H](C)c2nc(-c3ccccc3)c[nH]2)o1 [Cpd 286] | 0.11 nM | 0.05 nM | – | 2.6 nM | 34.65% |
| COc1ccc(CN(C(=O)[C@@H](N)Cc2c(C)cc(C(N)=O)cc2C)[C@@H](C)c2nc(-c3cccc(Br)c3)c[nH]2)cc1C(=O)O [Cpd 288] | 0.17 nM | 0.43 nM | – | > 10000 nM | 74.54% |
| COc1ccc(CN(C(=O)[C@@H](N)Cc2c(C)cc(C(N)=O)cc2C)[C@@H](C)c2nc(-c3ccccc3Br)c[nH]2)cc1C(=O)O [Cpd 290] | 0.69 nM | 0.43 nM | – | > 10000 nM | 52.41% |
| COc1ccc(CN(C(=O)[C@@H](N)Cc2c(C)cc(C(N)=O)cc2C)[C@@H](C)c2nc(-c3ccc(Br)cc3)c[nH]2)cc1C(=O)O [Cpd 291] | 0.12 nM | 0.47 nM | – | > 10000 nM | 96.52% |
